According to patent publication US20220267288A1, “CARDIAC THERAPEUTIC” (priority 2019, published 2022):

What was measured:
[1] = In vivo pharmacokinetic studies in dogs; conditions: for acute toxicity and fatality in vivo: PK study
Experimental: All experiments were approved by the Animal Research Committee for Animal Experimentation of Toho University (No. 12-52-151) and performed in accordance with the Guidelines for the Care and Use of Laboratory Animals of Toho University. […] Plasma samples were stored at −80° C. and thawed in ice before use.
Ice cold NDEA internal standard (IS) solution was used for protein precipitation at a plasma:IS ratio of 1:3. The mixture was vortex-mixed for 1 min, followed by centrifugation at 14,000 g at 4° C. for 15 min. The supernatant was then transferred into a vial for LC/MS/MS analysis.
The LC/MS/MS system consisted of Infinity ultra-high-pressure liquid chromatography (UHPLC) system (Agilent Technologies Inc., Santa Clara, Calif.) with the AB SCIEX QTRAP® 5500 tandem mass spectrometry (MS/MS) system (AB SCIEX, Framingham, Mass.). MultiQuant software version 1.4.0.18067 (Applied Biosystems) was used to perform all chromatographic peak integration.
Chromatographic separation was performed using ACQUITY UPLC BEH C18 column, 1.7 μm, 2.1×50 mm (Waters, Milford, Mass.), with a gradient elution programme. The mobile phases were 0.2% acetic acid in 5 mM ammonium acetate in water (A) and 0.2% acetic acid in ACN (B). The elution conditions were linear gradient 30-95% B (0-1.60 min), isocratic at 95% B (1.61-1.99 min), and isocratic at 30% B (2.00-2.50 min). Multiple reaction monitoring (MRM) transitions were optimized for NDEA (internal standard, IS), dronedarone and poyendarone.
Individual pharmacokinetic parameters were estimated using NCA for IV bolus data (Model 201), using WinNonlin® (Pharsight, USA). […] Data points included in the calculation of Lambda Z (Az) were first determined by WinNonlin®, and then visually assessed and modified accordingly. Other parameters calculated include apparent total plasma clearance (CL), apparent volume of distribution based on terminal phase (Vz), apparent elimination half-life (T1/2), apparent volume at steady state (Vss), mean residence time (MRT) and MRT extrapolated to infinity (MRTinf). […]

[2] = Aqueous solubility, MultiscreenHTS PCF Filter Plates; format: physicochemical; conditions: aqueous buffer; universal buffer (pH 7.4)
Experimental: The aqueous solubility of each compound was measured in universal buffer (pH 7.4) using MultiscreenHTS PCF Filter Plates. The effective permeability of each compound was measured using the parallel artificial membrane permeability assay (PAMPA).

[3] = target: T1, CYP2J2 (Homo sapiens, UniProt P51589); assay: Time- and concentration-dependent inactivation (MBI) of CYP2J2, rivaroxaban as probe substrate; format: biochemical; parameters: purchased BD Gentest (Woburn, Mass.)
T1 sequence (P51589 1-502): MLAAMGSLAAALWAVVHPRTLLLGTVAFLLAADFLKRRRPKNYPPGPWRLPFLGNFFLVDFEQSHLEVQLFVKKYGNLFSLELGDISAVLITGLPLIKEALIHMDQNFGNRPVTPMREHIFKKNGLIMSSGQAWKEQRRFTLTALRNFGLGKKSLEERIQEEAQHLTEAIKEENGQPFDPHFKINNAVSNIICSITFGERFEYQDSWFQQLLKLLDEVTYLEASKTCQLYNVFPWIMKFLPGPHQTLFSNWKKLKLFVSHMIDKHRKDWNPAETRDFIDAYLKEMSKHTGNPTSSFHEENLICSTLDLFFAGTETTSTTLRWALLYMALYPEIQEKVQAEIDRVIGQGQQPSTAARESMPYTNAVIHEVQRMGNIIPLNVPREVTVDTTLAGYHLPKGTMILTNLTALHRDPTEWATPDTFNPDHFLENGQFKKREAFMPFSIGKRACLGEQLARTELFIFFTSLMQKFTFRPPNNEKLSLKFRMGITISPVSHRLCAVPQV
Experimental: Incubations were conducted in triplicates in 96-well plates. Primary incubation mixtures comprising various concentrations of inhibitor (0-20 μM) were pre-incubated at 37° C. for 3 min with CYP450 enzymes (20 pmol/m L) and NADPH B in potassium phosphate buffer (100 mM, pH 7.4). To initiate the enzymatic reaction, 5 μL NADPH A was added to the primary incubation. The final primary incubation mixture volume was 100 μL and contained <1% v/v organic solvent. At different pre-incubation time points (3, 8, 15, 22, 30, and 45 min) after the addition of NADPH A, 5 μL aliquots of the primary incubation were transferred to 95 μL of the secondary incubation containing 50 μM rivaroxaban, the NADPH A and B, and potassium phosphate buffer (100 mM, pH 7.4) to yield a 20-fold dilution. The secondary incubation mixtures were incubated at 37° C. for 30 min with CYP2J2, before 80 μL aliquots were removed and quenched with an equal volume of ice-cold ACN containing 4 μM dexamethasone as IS. The samples were then centrifuged at 3220 g at 4° C. for 30 min before transferring the supernatant to a 96-well plate for liquid chromatography-tandem mass spectrometry (LC-MS/MS) analysis. The main rivaroxaban metabolite, morpholinone hydroxylated metabolite, was quantified using LC-MS/MS analysis.
The mean of triplicate peak area ratios for each concentration and pre-incubation time was normalized to that of 0 μM with the same pre-incubation time. The amount of rivaroxaban metabolite formed during the secondary incubation, a measure of the probe substrate activity remaining, was computed and the natural logarithm of this measure was plotted against inactivation pre-incubation time for each inactivator concentration. […]
In equation 1, kinact=maximum inactivation rate constant at infinite inactivator concentration (in min^−1); KI=concentration of inactivator at the half-maximal rate constant of inactivation (in μM); [I]=in vitro inactivator concentration (in μM). MBI potency (kinact/KI ratio, μM-1·min-1) against human recombinant CYP2J2 is determined for each compound. […]

[4] = target: T1, CYP2J2; parameters: endogenous in cells; host or cells: hiPSC-CM (from human foreskin fibroblasts); conditions: PBPK parameter; read-out: Reversible inhibition Ki CYP2J2; cited from earlier work

Structure (SMILES) | acute toxicity and fatality in vivo [1] | solubility [2] | inactivation (MBI) of CYP2J2, in words [3] | Ki [4] | plasma disposition profile, clearance and volume of distribution compared between poyendarone and dronedarone ([1]; 3.0 mg/kg IV bolus, 3 mg/kg)
CCCCc1oc2ccc(NS(C)(=O)=O)cc2c1C(=O)c1ccc(OCCCN(CCCC)CCCC)cc1.Cl [Dronedarone] | No acute toxicity nor fatality | 3.22 µg/mL | demonstrated inactivation of CYP2J2 | 930 nM | –
Cl.[2H]c1c(NS(C)(=O)=O)c([2H])c2c(C(=O)c3ccc(OCCCN(CCCC)CCCC)cc3)c(CCCC)oc2c1[2H] [Poyendarone, Methanesulfonamide, N-(2-butyl-3-(4-(3-(dibutylamino)propoxy)benzoyl)-1-benzo(4,6,7-d3)-furan-5-yl)hydrochloride] | No acute toxicity nor fatality | 2.43 µg/mL | does not cause MBI of CYP2J2 | 930 nM | comparable
